Assay results: ChEMBL document CHEMBL1201862, “PubChem BioAssay data set” (2004)
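Cultured in 96-well plates, cells were exposed to test compound for 48 hours across five concentrations. Here, GI50 denotes the concentration required for 50% inhibition of growth.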 Activity calls are given as the source filed them. No stated cut-off is given here; in the data, active = GI50 up to about 1.1 µM and inactive = higher.

Assays:
Experiment in all cases: NCI tumour cell line growth inhibition, 48 h
KM-20L2 = system: KM-20L2
SR = system: SR
SW-620 = system: SW-620
UACC-62 = system: UACC-62
M19-MEL = system: M19-MEL
TK-10 = system: TK-10
DLD-1 = system: DLD-1
UO-31 = system: UO-31
HCC 2998 = system: HCC 2998
UACC-257 = system: UACC-257
KM12 = system: KM12
HT-29 = system: HT-29
HCT-15 = system: HCT-15
A498 = system: A498
IGROV-1 = system: IGROV-1
HOP-62 = system: HOP-62
786-0 = system: 786-0
DMS-114 = system: DMS-114
HOP-18 = system: HOP-18
OVCAR-4 = system: OVCAR-4
OVCAR-8 = system: OVCAR-8
CAKI-1 = system: CAKI-1
ACHN = system: ACHN
NCI-H460 = system: NCI-H460
SK-OV-3 = system: SK-OV-3
SF-539 = system: SF-539
OVCAR-3 = system: OVCAR-3
K562 = system: K562
CCRF-CEM = system: CCRF-CEM
MOLT-4 = system: MOLT-4
SNB-78 = system: SNB-78
NCI-H522 = system: NCI-H522
SF-295 = system: SF-295
HCT-116 = system: HCT-116
HOP-92 = system: HOP-92
LOX IMVI = system: LOX IMVI
Malme-3M = system: Malme-3M
M14 = system: M14
NCI-H226 = system: NCI-H226
COLO 205 = system: COLO 205
SN12C = system: SN12C
SF-268 = system: SF-268
DMS-273 = system: DMS-273
SK-MEL-2 = system: SK-MEL-2
SK-MEL-5 = system: SK-MEL-5
NCI-H23 = system: NCI-H23
A549 = system: A549
HL-60 = system: HL-60
EKVX = system: EKVX
U-251 = system: U-251
RXF 631 = system: RXF 631
RPMI-8226 = system: RPMI-8226
SNB-75 = system: SNB-75
LXFL 529 = system: LXFL 529
SK-MEL-28 = system: SK-MEL-28
OVCAR-5 = system: OVCAR-5
RXF 393 = system: RXF 393
SNB-19 = system: SNB-19

With `CC(C)CN(CC(C)C)C(=O)C1CCCC[C@@H]1C(=O)O` (some centres undefined) the GI50 (KM-20L2) was > 100 µM (inactive), the GI50 (SR) was > 100 µM (inactive) and the GI50 (SW-620) was > 100 µM (inactive). For the same compound, the GI50 (UACC-62) was > 100 µM (inactive), the GI50 (M19-MEL) was > 100 µM (inactive) and the GI50 (TK-10) was > 100 µM (inactive). The GI50 (DLD-1) was > 100 µM (inactive), the GI50 (UO-31) was > 100 µM (inactive) and the GI50 (HCC 2998) was > 100 µM (inactive). The GI50 (UACC-257) was > 100 µM (inactive), the GI50 (KM12) was > 100 µM (inactive) and the GI50 (HT-29) was > 100 µM (inactive). For the same compound, the GI50 (HCT-15) was > 100 µM, the GI50 (A498) was > 100 µM (inactive) and the GI50 (IGROV-1) was > 100 µM (inactive). For the same compound, the GI50 (HOP-62) was > 100 µM (inactive), the GI50 (786-0) was > 100 µM (inactive) and the GI50 (DMS-114) was > 100 µM (inactive). For the same compound, the GI50 (HOP-18) was > 100 µM (inactive), the GI50 (OVCAR-4) was > 100 µM (inactive) and the GI50 (OVCAR-8) was > 100 µM (inactive). For the same compound, the GI50 (CAKI-1) was > 100 µM (inactive), the GI50 (ACHN) was > 100 µM (inactive) and the GI50 (NCI-H460) was > 100 µM (inactive). The GI50 (SK-OV-3) was > 100 µM (inactive), the GI50 (SF-539) was > 100 µM (inactive) and the GI50 (OVCAR-3) was > 100 µM (inactive). The GI50 (K562) was > 100 µM (inactive), the GI50 (CCRF-CEM) was > 100 µM (inactive) and the GI50 (MOLT-4) was > 100 µM (inactive). For the same compound, the GI50 (SNB-78) was > 100 µM (inactive), the GI50 (NCI-H522) was > 100 µM (inactive) and the GI50 (SF-295) was > 100 µM (inactive). For the same compound, the GI50 (HCT-116) was > 100 µM (inactive), the GI50 (HOP-92) was > 100 µM (inactive) and the GI50 (LOX IMVI) was > 100 µM (inactive). For the same compound, the GI50 (Malme-3M) was > 100 µM (inactive), the GI50 (M14) was > 100 µM (inactive) and the GI50 (NCI-H226) was > 100 µM (inactive). For the same compound, the GI50 (COLO 205) was > 100 µM (inactive), the GI50 (SN12C) was > 100 µM (inactive) and the GI50 (SF-268) was > 100 µM (inactive). The GI50 (DMS-273) was > 100 µM (inactive), the GI50 (SK-MEL-2) was > 100 µM (inactive) and the GI50 (SK-MEL-5) was > 100 µM (inactive). For the same compound, the GI50 (NCI-H23) was > 100 µM (inactive), the GI50 (A549) was > 100 µM (inactive) and the GI50 (HL-60) was > 100 µM (inactive). The GI50 (EKVX) was > 100 µM (inactive), the GI50 (U-251) was > 100 µM (inactive) and the GI50 (RXF 631) was > 100 µM (inactive). For the same compound, the GI50 (RPMI-8226) was > 100 µM (inactive), the GI50 (SNB-75) was > 100 µM (inactive) and the GI50 (LXFL 529) was > 100 µM (inactive). For the same compound, the GI50 (SK-MEL-28) was > 100 µM (inactive) and the GI50 (OVCAR-5) was > 10 µM (inactive).
`Cc1ccc(C)c(N2C(=O)C(=O)C(c3nc4ccccc4o3)C(=O)C2=O)c1` was tested, and the GI50 (KM-20L2) was > 100 µM (inactive), the GI50 (SR) was 28.8 µM (inactive) and the GI50 (RXF 393) was > 100 µM (inactive). For the same compound, the GI50 (SW-620) was 46.3 µM (inactive), the GI50 (UACC-62) was 43.9 µM (inactive) and the GI50 (M19-MEL) was 59.2 µM (inactive). For the same compound, the GI50 (SNB-19) was > 100 µM (inactive), the GI50 (TK-10) was > 100 µM (inactive) and the GI50 (DLD-1) was 22.9 µM (inactive). For the same compound, the GI50 (UO-31) was > 100 µM (inactive), the GI50 (HCC 2998) was > 100 µM (inactive) and the GI50 (UACC-257) was 32 µM (inactive). For the same compound, the GI50 (KM12) was > 100 µM (inactive), the GI50 (HT-29) was 49.5 µM (inactive) and the GI50 (HCT-15) was 99.5 µM. The GI50 (A498) was > 100 µM (inactive), the GI50 (IGROV-1) was 35.9 µM (inactive) and the GI50 (HOP-62) was > 100 µM (inactive). For the same compound, the GI50 (786-0) was > 100 µM (inactive), the GI50 (DMS-114) was 44 µM (inactive) and the GI50 (HOP-18) was > 100 µM (inactive). For the same compound, the GI50 (OVCAR-4) was 37.6 µM (inactive), the GI50 (OVCAR-8) was > 100 µM (inactive) and the GI50 (CAKI-1) was > 100 µM (inactive). For the same compound, the GI50 (ACHN) was > 100 µM (inactive), the GI50 (NCI-H460) was > 100 µM (inactive) and the GI50 (SK-OV-3) was > 100 µM (inactive). For the same compound, the GI50 (SF-539) was > 100 µM (inactive), the GI50 (OVCAR-3) was 39.4 µM (inactive) and the GI50 (CCRF-CEM) was 17 µM (inactive). The GI50 (MOLT-4) was 27.2 µM (inactive), the GI50 (SNB-78) was > 100 µM (inactive) and the GI50 (SF-295) was > 100 µM (inactive). For the same compound, the GI50 (HCT-116) was 27.1 µM (inactive), the GI50 (HOP-92) was 92 µM (inactive) and the GI50 (Malme-3M) was 49.2 µM (inactive). The GI50 (M14) was 36.1 µM (inactive), the GI50 (NCI-H226) was > 100 µM (inactive) and the GI50 (COLO 205) was 32.9 µM (inactive). For the same compound, the GI50 (SN12C) was > 100 µM (inactive), the GI50 (SF-268) was > 100 µM (inactive) and the GI50 (DMS-273) was > 100 µM (inactive). The GI50 (SK-MEL-2) was > 100 µM (inactive), the GI50 (SK-MEL-5) was 67.5 µM (inactive) and the GI50 (NCI-H23) was 43.6 µM (inactive). For the same compound, the GI50 (A549) was > 100 µM (inactive), the GI50 (HL-60) was 17.3 µM (inactive) and the GI50 (EKVX) was > 100 µM (inactive). For the same compound, the GI50 (U-251) was 96.6 µM (inactive), the GI50 (RXF 631) was > 100 µM (inactive) and the GI50 (SNB-75) was 95.1 µM (inactive). The GI50 (LXFL 529) was 48.9 µM (inactive) and the GI50 (SK-MEL-28) was 34 µM (inactive).
